# Results: EP0114750A2, “Beta-lactam antibacterial agents” (BEECHAM GROUP PLC, priority 1983, dated 1984)
# Where a name gives a salt, the structure may show the parent alone. Read-outs that look alike come from different tables or passages of the source.
# Tested on: P. mirabilis 889
# Test: MIC, antibacterial activity
# Format: cell-based
# Settings: Proteus mirabilis
structure (smiles),measurement,setting,value
"CCN1CCN(C(=O)N[C@@H](C(=O)N[C@]2(NC=O)C(=O)N3C(C(=O)O)=C(CSc4nnnn4CC(N)=O)CS[C@@H]32)c2ccc(OC(C)=O)c(OC(C)=O)c2)C(=O)C1=O [Example 14, Sodium 3-[(1-carbamoylmethyl-1H-tetrazol-5-yl)thiomethyl]-7β-[D-2-(3,4-diacetoxyphenyl)-2-[(4-ethyl-2,3-dioxopiperazin-1-yl)carbonylamino]acetamido)-7α-formamidoceph-3-em-4-carboxylate]",MIC,"889, strain number not given, read-out: MIC against P.mirabilis",0.12 µg/mL
"CCN1CCN(C(=O)N[C@@H](C(=O)N[C@]2(NC=O)C(=O)N3C(C(=O)O)=C(CSc4nnnn4CC(N)=O)CS[C@@H]32)c2ccccc2)C(=O)C1=O [Example 13, 3-[1-carbamoylmethyl-1H-tetrazol-5-yl)thiomethyl]-7β-[2-[(4-ethyl-2,3-dioxopiperazin-1-yl)-carbonylamino]-2-phenyl-acetamido]-7a-formamidoceph-3-em-4-carboxylic acid, sodium salt]",MIC,"strain P. mirabilis 889, read-out: MIC against P. mirabilis 889",0.12 µg/mL
